Data published in patent US20230013669A1, “Antibacterial Treatment Using a Cannabinoid and an Active Agent” (priority 2019, published 2023).
“And” between values parts separate entries of the source, which are not always exact repeats. Equal values may be shown once.

Test system: Escherichia coli ATCC 25922 (GN_001)
Experiment: Synergy of cannabidiol with cell-wall disrupting agent (CBD MIC in combination, FICI)
Format: cell-based
Description: The compounds were stored short term at 4° C.
Analysis was performed using Microsoft Excel.

[1] = CBD with Colistin, Escherichia coli ATCC 25922
[2] = CBD with MCC_6442, Escherichia coli ATCC 25922
[3] = CBD with Ticarcillin, Escherichia coli ATCC 25922

## C=C(C)C1CCC(C)=CC1c1c(O)cc(CCCCC)cc1O (stereo not shown) [Cannabidiol, 2-[3-methyl-6-(1-methylethenyl)-2-cyclohexen-1-yl]-5-pentyl-1,3-benzenediol]
Aztreonam at 0.062 μg/mL
  CBD MIC with Aztreonam: 1 ng/mL
Aztreonam at 0.25 μg/mL
  CBD MIC with Aztreonam: 1 ng/mL
Aztreonam at 0.5 μg/mL
  CBD MIC with Aztreonam: 1 ng/mL
Aztreonam at […]
  CBD MIC with Aztreonam: 1 ng/mL
CBD with Aztreonam at 0.015 μg/mL, CBD MIC taken as 256 μg/mL
  FICI: 1.12
CBD with Aztreonam at 0.031 μg/mL, CBD MIC taken as 256 μg/mL
  FICI: 1.248
CBD with Aztreonam at 0.062 μg/mL, CBD MIC taken as 256 μg/mL
  FICI: 0.496
CBD with Aztreonam at 0.25 μg/mL, CBD MIC taken as 256 μg/mL
  FICI: 2
CBD with Aztreonam at 0.5 μg/mL, CBD MIC taken as 256 μg/mL
  FICI: 4
CBD with Aztreonam, Synergy table (Table 76)
  FICI range: 0.48
CBD with Aztreonam, all tested concentrations (Table 74)
  FICI range: 0.5-4
CBD with Cefepime at 0.015 μg/mL, CBD MIC taken as 256 μg/mL
  FICI: 1.484 and 1.242
CBD with Cefepime at 0.062 μg/mL, CBD MIC taken as 256 μg/mL
  FICI: 2
CBD with Cefepime at 0.25 μg/mL, CBD MIC taken as 256 μg/mL
  FICI: 8.065
CBD with Cefepime at 0.25 μg/mL, CBD MIC taken as 256 μg/mL, listed as cannabidiol
  FICI: 4.032
CBD with Cefepime at 0.5 μg/mL, CBD MIC taken as 256 μg/mL
  FICI: 16.13 and 8.065
CBD with Cefepime, all tested concentrations (Table 79), listed as CBD
  FICI range: 1-16.13 and 0.5-8.06
CBD with Cefotetan at 0.015 μg/mL, CBD MIC taken as 256 μg/mL
  FICI: 1.06
CBD with Cefotetan at 0.031 μg/mL, CBD MIC taken as 256 μg/mL
  FICI: 1.124
CBD with Cefotetan at 0.062 μg/mL, CBD MIC taken as 256 μg/mL
  FICI: 1.248
CBD with Cefotetan at 0.5 μg/mL, CBD MIC taken as 256 μg/mL
  FICI: 2
CBD with Cefotetan, Escherichia coli ATCC 25922
  FICI range (MIC table): 0.5-2
CBD with Cefotetan, Synergy table (Table 71)
  FICI range: 0.5
CBD with Ceftazidime at 0.015 μg/mL, Escherichia coli ATCC 25922
  FICI: 1.242
CBD with Ceftazidime at 0.031 μg/mL, Escherichia coli ATCC 25922
  FICI: 1.5
CBD with Ceftazidime at 0.062 μg/mL, Escherichia coli ATCC 25922
  FICI: 2
CBD with Ceftazidime at 0.25 μg/mL, Escherichia coli ATCC 25922
  FICI: 4.032
CBD with Ceftazidime at 0.5 μg/mL, Escherichia coli ATCC 25922
  FICI: 8.065
CBD with Ceftazidime, Escherichia coli ATCC 25922
  FICI range (MIC table): 1.24-8.06
CBD with Cefuroxime at 0.25 μg/mL, Escherichia coli ATCC 25922
  FICI: 1.125
CBD with Cefuroxime at 1 μg/mL, Escherichia coli ATCC 25922
  FICI: 1.5
CBD with Cefuroxime at 2 μg/mL, Escherichia coli ATCC 25922
  FICI: 1.001
CBD with Cefuroxime at 4 μg/mL, Escherichia coli ATCC 25922
  FICI: 2
CBD with Cefuroxime at 8 μg/mL, Escherichia coli ATCC 25922
  FICI: 4
CBD with Colistin at 0.015 μg/mL, Escherichia coli ATCC 25922
  FICI: 1.03
CBD with Colistin at 0.03 μg/mL, Escherichia coli ATCC 25922
  FICI: 1.06
CBD with Colistin at 0.06 μg/mL, Escherichia coli ATCC 25922
  FICI: 0.1512
CBD with Colistin at 0.25 μg/mL, Escherichia coli ATCC 25922
  FICI: 0.5039
CBD with Colistin at 0.5 μg/mL, Escherichia coli ATCC 25922
  FICI: 1
[1]
  FICI range (MIC table): 0.15-1.06
  FICI range (Synergy table): 0.15-0.5
[2]
  FICI range (MIC table): 0.5-1.25
  FICI range (Synergy table): 0.5
CBD with MCC_6442 at 0.25 μg/mL, Escherichia coli ATCC 25922
  FICI: 1.0625
CBD with MCC_6442 at 0.5 μg/mL, Escherichia coli ATCC 25922
  FICI: 1.125
CBD with MCC_6442 at 2 μg/mL, Escherichia coli ATCC 25922, listed as CBD
  FICI: 0.5
CBD with Octapeptin C4, Synergy table (Table 85), listed as CBD
  FICI range: 0.5 and 0.31-0.5
CBD with Octapeptin C4, all tested concentrations (Table 83), listed as CBD
  FICI range: 0.5-1.25 and 0.31-1.13
CBD with Octapeptin C4 at 0.5 μg/mL, CBD MIC taken as 256 μg/mL
  FICI: 1.0625
CBD with Octapeptin C4 at 1 μg/mL, CBD MIC taken as 256 μg/mL
  FICI: 1.125
CBD with Octapeptin C4 at 2 μg/mL, CBD MIC taken as 256 μg/mL
  FICI: 0.3125
CBD with Octapeptin C4 at 4 μg/mL, CBD MIC taken as 256 μg/mL
  FICI: 0.5002 and 0.5005
CBD with Octapeptin C4 at […], CBD MIC taken as 256 μg/mL
  FICI: 1.016
CBD with Spero SPR206, 1st of 3 experiments
  FICI range: 0.5-16
CBD with Spero SPR206, 2nd of 3 experiments, listed as CBD
  FICI range: 0.13-1.06 and 0.07-1.03
CBD with Spero SPR206, 3rd of 3 experiments
  FICI range: 1.01-8
CBD with Spero SPR206 at 0.007 μg/mL, 2nd of 3 experiments, CBD MIC taken as 256 μg/mL
  FICI: 1.014
CBD with Spero SPR206 at 0.015 μg/mL, 2nd of 3 experiments, CBD MIC taken as 256 μg/mL
  FICI: 1.03
CBD with Spero SPR206 at 0.062 μg/mL, 2nd of 3 experiments, CBD MIC taken as 256 μg/mL
  FICI: 0.1279
CBD with Spero SPR206 at 0.25 μg/mL, 2nd of 3 experiments, CBD MIC taken as 256 μg/mL
  FICI: 0.5039
CBD with Spero SPR206 at 0.25 μg/mL, 3rd of 3 experiments, CBD MIC taken as 256 μg/mL
  FICI: 1.5
CBD with Spero SPR206 at 0.5 μg/mL, 1st of 3 experiments, CBD MIC taken as 256 μg/mL
  FICI: 2
CBD with Spero SPR206 at 0.5 μg/mL, 3rd of 3 experiments, CBD MIC taken as 256 μg/mL
  FICI: 1.008
CBD with Spero SPR206 at 1 μg/mL, 1st of 3 experiments, CBD MIC taken as 256 μg/mL
  FICI: 4
CBD with Spero SPR206 at 1 μg/mL, 3rd of 3 experiments, CBD MIC taken as 256 μg/mL
  FICI: 2.002 and 2.001
CBD with Spero SPR206 at 2 μg/mL, 1st of 3 experiments, CBD MIC taken as 256 μg/mL
  FICI: 8
CBD with Spero SPR206 at 2 μg/mL, 3rd of 3 experiments, CBD MIC taken as 256 μg/mL
  FICI: 4.001
CBD with Spero SPR206 at 4 μg/mL, 1st of 3 experiments, CBD MIC taken as 256 μg/mL
  FICI: 16
CBD with Spero SPR206 at 4 μg/mL, 3rd of 3 experiments, CBD MIC taken as 256 μg/mL
  FICI: 8
CBD with Ticarcillin at 0.5 μg/mL, Escherichia coli ATCC 25922
  FICI: 1.0625
CBD with Ticarcillin at 1 μg/mL, Escherichia coli ATCC 25922
  FICI: 1.125
CBD with Ticarcillin at 4 μg/mL, Escherichia coli ATCC 25922
  FICI: 0.5005
[3]
  FICI range (MIC table): 0.5-1.25
  FICI range (Synergy table): 0.5
Cefepime at 0.031 μg/mL
  CBD MIC with Cefepime: 1 ng/mL
Cefepime at 0.062 μg/mL
  CBD MIC with Cefepime: 1 ng/mL
Cefepime at 0.25 μg/mL
  CBD MIC with Cefepime: 1 ng/mL
Cefepime at 0.5 μg/mL
  CBD MIC with Cefepime: 1 ng/mL
Cefepime at […]
  CBD MIC with Cefepime: 1 ng/mL
Cefotetan at 0.015 μg/mL
  CBD MIC with Cefotetan: >32 µg/mL
Cefotetan at 0.015 μg/mL, Escherichia coli ATCC 25922
  CBD MIC with Cefotetan: >256 µg/mL
Cefotetan at 0.031 μg/mL
  CBD MIC with Cefotetan: >32 µg/mL
Cefotetan at 0.031 μg/mL, Escherichia coli ATCC 25922
  CBD MIC with Cefotetan: >256 µg/mL
Cefotetan at 0.062 μg/mL
  CBD MIC with Cefotetan: >32 µg/mL
Cefotetan at 0.062 μg/mL, Escherichia coli ATCC 25922
  CBD MIC with Cefotetan: >256 µg/mL
Cefotetan at 0.25 μg/mL
  CBD MIC with Cefotetan: 0.001 µg/mL
Cefotetan at 0.25 μg/mL, Escherichia coli ATCC 25922
  CBD MIC with Cefotetan: 0.001 µg/mL
Cefotetan at 0.5 μg/mL
  CBD MIC with Cefotetan: 0.001 µg/mL
Cefotetan at 0.5 μg/mL, Escherichia coli ATCC 25922
  CBD MIC with Cefotetan: 0.001 µg/mL
Cefotetan at […]
  CBD MIC with Cefotetan: 0.001 µg/mL
Cefotetan at […], Escherichia coli ATCC 25922
  CBD MIC with Cefotetan: 0.001 µg/mL
Ceftazidime at 0.25 μg/mL, Escherichia coli ATCC 25922
  CBD MIC with Ceftazidime: 1 ng/mL
Ceftazidime at 0.5 μg/mL, Escherichia coli ATCC 25922
  CBD MIC with Ceftazidime: 1 ng/mL
Cefuroxime at 2 μg/mL, Escherichia coli ATCC 25922
  CBD MIC with Cefuroxime: 0.25 µg/mL
